10 compounds from ChEMBL document CHEMBL1136379, “Identification of potent and broad-spectrum antibiotics from SAR studies of a synthetic vancomycin analogue” (2003) can be followed below.

Molecules are shown by their SMILES. ≈ marks a conversion by molar mass, not a printed value.

Holding throughout (assay type): functional
Test [1] deals with Enterococcus faecium. The test is described as follows: Minimum inhibitory concentration against vancomycin-resistant Enterococcus faecium.
For test [2], the system named is Enterococcus faecium. Nature of the test: Compound tested for Susceptibility of vancomycin-resistant Enterococcus faecium.
In test [3] the test system is Haemophilus influenzae. The test is described as follows: Compound tested for Susceptibility of Haemophilus influenzae.
Test [4] relates to Staphylococcus aureus. Nature of the test: Compound tested for Susceptibility of Staphylococcus aureus.
The subject of test [5] is Staphylococcus epidermidis. Nature of the test: Compound tested for Susceptibility of Staphylococcus epidermidis.
The test system of test [6] is Staphylococcus epidermidis. Nature of the test: Compound tested for Susceptibility of Methicillin-resistant Staphylococcus epidermidis (MRSE).
Another test has as its system Enterococcus faecalis. The test is described as follows: Compound tested for Susceptibility of Enterococcus faecalis.
Test [7] relates to Streptococcus pneumoniae. Nature of the test: Compound tested for Susceptibility of Streptococcus pneumoniae.
The subject of another test is Moraxella catarrhalis. The test is described as follows: Compound tested for Susceptibility of Moraxella catarrhalis.
The test system of test [8] is Escherichia coli. The test is described as follows: Compound tested for Susceptibility of Escherichia coli.
For test [9], the system named is Enterococcus faecium. Nature of the test: Compound tested for Susceptibility of Enterococcus faecium.
The subject of a further test is Klebsiella pneumoniae. Nature of the test: Compound tested for Susceptibility of Klebsiella pneumoniae.
Test [10] has as its system Streptococcus pneumoniae. Nature of the test: Compound tested for Susceptibility of Streptococcus pneumoniae (Penicillin-intermediate).
The subject of a further test is Streptococcus pyogenes. The test is described as follows: Compound tested for Susceptibility of Streptococcus pyogenes.
In test [11] the test system is Staphylococcus aureus. The test is described as follows: Compound tested for Susceptibility of Methicillin-resistant Staphylococcus aureus […].
A further test concerns Pseudomonas aeruginosa. Nature of the test: Compound tested for Susceptibility of Pseudomonas aeruginosa.
Test [12] relates to Haemophilus influenzae. Nature of the test: Compound tested for Susceptibility of Haemophilus influenzae (efflux mutant).
Test [13] deals with Escherichia coli. The test is described as follows: Compound tested for Susceptibility of Escherichia coli (efflux mutant).

`CN[C@H](CC(C)C)C(=O)N[C@@H]1Cc2ccc(cc2)Oc2cc(ccc2O)C(C(=O)N[C@@H](CN)C(=O)N[C@@H](Cc2ccccc2)C(=O)N2Cc3[nH]c4ccccc4c3C[C@H]2C(N)=O)NC(=O)[C@H](CC(N)=O)NC1=O` (stereo not given in full): the MIC was 300 mg/L (≈ 300 µM) against Enterococcus faecium [1] and 150 mg/L (≈ 150 µM) in the test with Enterococcus faecium [2].

Consider `CC(=O)N[C@@H](CN)C(=O)N[C@@H](Cc1ccccc1)C(=O)N1Cc2[nH]c3ccccc3c2C[C@H]1C(N)=O`, for which the MIC is 600 mg/L (≈ 1220 µM) against Enterococcus faecium [1] and 1200 mg/L (≈ 2450 µM) against Enterococcus faecium [2].

In the case of `CN[C@H](CC(C)C)C(=O)N[C@@H](CN)C(=O)N[C@@H](Cc1ccccc1)C(=O)N1Cc2[nH]c3ccccc3c2C[C@H]1C(N)=O`, the MIC in the test on Enterococcus faecium [1] is 600 mg/L (≈ 1040 µM); with Enterococcus faecium [2] it was over 1200 mg/L.

`CC(=O)N[C@@H](CN)C(=O)N[C@@H](Cc1ccccc1)C(=O)N1Cc2[nH]c3ccccc3c2C[C@H]1C(=O)NCC(O)CNC(=O)[C@@H]1Cc2c([nH]c3ccccc23)CN1C(=O)[C@H](Cc1ccccc1)NC(=O)[C@H](CN)NC(C)=O`: the values for the MIC in the test on Enterococcus faecium [1] and with Enterococcus faecium [2] were 600 mg/L (≈ 578 µM) and 18 mg/L (≈ 17.4 µM), respectively.

Regarding `CNC(CC(C)C)C(=O)N[C@@H](CN)C(=O)N[C@@H](Cc1ccccc1)C(=O)N1Cc2[nH]c3ccccc3c2C[C@H]1C(=O)NCC(O)CNC(=O)[C@@H]1Cc2c([nH]c3ccccc23)CN1C(=O)[C@H](Cc1ccccc1)NC(=O)[C@H](CN)NC(=O)[C@@H](CC(C)C)NC` (stereo not given in full), the MIC in the test with Haemophilus influenzae [3] is 96 mg/L (≈ 79.5 µM); with Staphylococcus aureus [4], 16 mg/L (≈ 13.3 µM); in test [5], 24 mg/L (≈ 19.9 µM); in test [6] it was 8 mg/L (≈ 6.63 µM); with Enterococcus faecalis, 8 mg/L (≈ 6.63 µM); against Enterococcus faecium [1] it was 600 mg/L (≈ 497 µM). Also, the MIC is 16 mg/L (≈ 13.3 µM) against Streptococcus pneumoniae [7]; 8 mg/L (≈ 6.63 µM) with Moraxella catarrhalis; 32 mg/L (≈ 26.5 µM) in the test on Escherichia coli [8]; 4 mg/L (≈ 3.31 µM) with Enterococcus faecium [9]; over 128 mg/L in the test on Klebsiella pneumoniae; 8 mg/L (≈ 6.63 µM) in the test with Streptococcus pneumoniae [10]. Moreover, the MIC with Streptococcus pyogenes is 2 mg/L (≈ 1.66 µM); in the test with Staphylococcus aureus [11], 32 mg/L (≈ 26.5 µM); in the test with Enterococcus faecium [2], 18 mg/L (≈ 14.9 µM); in the test on Pseudomonas aeruginosa, 128 mg/L (≈ 106 µM); in the test on Haemophilus influenzae [12], 16 mg/L (≈ 13.3 µM); against Escherichia coli [13] it was 16 mg/L (≈ 13.3 µM).

Consider `CN[C@H](CC(C)C)C(=O)N[C@@H]1Cc2ccc(cc2)Oc2cc(ccc2O)C(C(=O)N[C@@H](CN)C(=O)N[C@@H](Cc2ccccc2)C(=O)N2Cc3[nH]c4ccccc4c3C[C@H]2C(=O)NCCC(O)CCNC(=O)[C@@H]2Cc3c([nH]c4ccccc34)CN2C(=O)[C@H](Cc2ccccc2)NC(=O)[C@H](CN)NC(=O)C2NC(=O)[C@H](CC(N)=O)NC(=O)[C@H](NC(=O)[C@@H](CC(C)C)NC)Cc3ccc(cc3)Oc3cc2ccc3O)NC(=O)[C@H](CC(N)=O)NC1=O` (stereo not given in full), for which the MIC came out at 600 mg/L (≈ 288 µM) against Enterococcus faecium [1] and 18 mg/L (≈ 8.64 µM) in the test on Enterococcus faecium [2].

Compound `NC(=O)C[C@@H]1NC(=O)[C@H](NC(=O)OCC2c3ccccc3-c3ccccc32)Cc2ccc(cc2)Oc2c(O)ccc(CC(=O)O)c2NC1=O` gave an MIC against Enterococcus faecium [1] of 300 mg/L (≈ 451 µM).

For the compound `CN[C@@H](CC(C)C)C(=O)N[C@@H]1Cc2ccc(cc2)Oc2cc(ccc2O)C(C(=O)N[C@@H](CN)C(=O)N[C@@H](Cc2ccccc2)C(=O)N2Cc3[nH]c4ccccc4c3C[C@H]2C(=O)NCCCC(O)CCCNC(=O)[C@@H]2Cc3c([nH]c4ccccc34)CN2C(=O)[C@H](Cc2ccccc2)NC(=O)[C@H](CN)NC(=O)C2NC(=O)[C@H](CC(N)=O)NC(=O)[C@H](NC(=O)[C@@H](CC(C)C)NC)Cc3ccc(cc3)Oc3cc2ccc3O)NC(=O)[C@H](CC(N)=O)NC1=O` (stereo not given in full) [VANCOMYCIN ANALOGUE], the MIC in the test on Enterococcus faecium [1] was found to be 600 mg/L (≈ 284 µM); with Enterococcus faecium [2], 38 mg/L (≈ 18 µM).

As for `CN[C@H](CC(C)C)C(=O)N[C@@H]1Cc2ccc(cc2)Oc2cc(ccc2O)C(C(=O)N[C@@H](CN)C(=O)N[C@@H](Cc2ccccc2)C(=O)N2Cc3[nH]c4ccccc4c3C[C@H]2C(=O)NCC(O)CNC(=O)[C@@H]2Cc3c([nH]c4ccccc34)CN2C(=O)[C@H](Cc2ccccc2)NC(=O)[C@H](CN)NC(=O)C2NC(=O)[C@H](CC(N)=O)NC(=O)[C@H](NC(=O)[C@@H](CC(C)C)NC)Cc3ccc(cc3)Oc3cc2ccc3O)NC(=O)[C@H](CC(N)=O)NC1=O` (stereo not given in full) [VANCOMYCIN ANALOGUE], the MIC in the test on Enterococcus faecium [1] worked out at 600 mg/L (≈ 292 µM); with Enterococcus faecium [2], 9 mg/L (≈ 4.38 µM).

Turning to `CN[C@H](CC(C)C)C(=O)N[C@H]1C(=O)N[C@@H](CC(N)=O)C(=O)N[C@H]2C(=O)N[C@H]3C(=O)N[C@H](C(=O)N[C@H](C(=O)O)c4cc(O)cc(O)c4-c4cc3ccc4O)[C@H](O)c3ccc(c(Cl)c3)Oc3cc2cc(c3O[C@@H]2O[C@H](CO)[C@@H](O)[C@H](O)[C@H]2O[C@H]2C[C@](C)(N)[C@H](O)[C@H](C)O2)Oc2ccc(cc2Cl)[C@H]1O` [VANCOMYCIN], the MIC against Enterococcus faecium [1] and against Enterococcus faecium [2] was 600 mg/L (≈ 414 µM) each time.
